# Like-named read-outs stand apart in the source and are kept apart here.
# Assays:
# [1] = test system: Proteus mirabilis pathogenic cells; details: previously reported by the authors; reference number not given; read-out: IC50, ureolysis in Proteus mirabilis pathogenic cells; cited from earlier work
# [2] = test system: H. pylori Tx30a (ATCC 51932) live cells; assay: Whole cell ureolysis assay, cresol red; type: cell-based, Helicobacter pylori
# Description: (§1) Enzymatic activity assays
# Purified urease activity with the addition of the organoselenium compounds studied was measured using cresol red as an indicator of pH changes caused by ammonia produced during ureolysis.S6 The reaction was carried out in 3 mM phosphate buffer containing 30 mM urea, 0.01 % w/v cresol red, purified urease (at a concentration that led to a change in A570 of approximately 1.5 in 90 min) and studied compounds at various concentrations. The reaction was followed by using a TECAN Sunrise spectrometer , and the resulting progress curves were further analyzed to determine the activity and binding mechanism. The rea ction was followed in a system without preincubation of the enzyme with the benzisoselenazolone derivatives (addition of urease initiated the measurement). […]
# Whole cell ureolysis assays
# To measure the inhibitory activity of the compounds studied against whole cells of ureolytic pathogens, the cresol red reaction was carried out using H. pylori cells that were washed twice with 10 mM PBS and used as a biocatalyst.S6 The reaction mixture contained 10 mM PBS, 10 […]
# mM urea, bacterial cells, and urease inhibitors. The results were then used to calculate the IC50 values of the organoselenium compounds against the whole cell ureolysis of H. pylori. […]
# [3] = test system: multidrug-resistant clinical isolate H. pylori 2CML; assay: Antimicrobial activity alone and in combination with antibiotics, checkerboard method; type: cell-based, Helicobacter pylori; details: for MIC: Helicobacter pylori
# Description: Combination of drugs against H. pylori 2CML
# A multidrug-resistant clinical isolate H. pylori 2CML from the collection of the Department of Microbiology, Wrocław Medical University)S7 was used to assess the antimicrobial activity of compounds 1 and 4m, in combination with Clarithromycin, Metronidazole, and Levofloxacin (Sigma-Aldrich). The experiments were carried out on flat-bottom 12-well microtiter plates (Bionovo, Legnica, Poland), arranged in a 48-well panel to use the checkboard method.S8 […]
# the selected antibiotic were placed in external wells along the x- and y-axes, respectively. The remaining wells contained varying concentrations of both compounds. Each well consisted of 1 mL of Brain Heart Infusion (Oxoid, Le Pont de Claix , France) broth with 5% foetal calf serum (Gibco, Paisley, Scotland, UK) , a bacterial suspension of 10^7 CFU/mL and the desired concentration of the antimicrobial (s) tested. Following the setup, the plates were incubated for 3 days at 37 °C under microaerophilic conditions (GENbox microaer kits, BioMerrieux, Marcy l’Etoile, France), shaking at 100 rpm.
# The minimum inhibitory concentration (MIC) was determined as the lowest concentration in which no microbial growth was observed .
# The interactions between antimicrobials were interpreted b y calculation of the fractional inhibitory concentration (FIC) index (FICI), defined as FICI = FICA + FICB (FICA = MIC of substance A in combination / MIC of substance A alone, FICB = MIC of substance B in combination / MIC of substance B alone). FICI ≤0.5 was considered as synergism; >0.5 but ≤1 as additivity, while […] as neutral.
# [4] = target: T1, S. pasteurii urease (Sporosarcina pasteurii, UniProt P41020); assay: Purified S. pasteurii urease inhibition, cresol red assay, no preincubation; type: biochemical, Sporosarcina pasteurii CCM 2056; details: native purified urease, slow-binding, read-out: K i, S. pasteurii urease
# T1 construct: The native urease, purified from S. pasteurii CCM 2056; made in house; host or cells: Sporosarcina pasteurii CCM 2056 (native, endogenous enzyme, not recombinant)
# T1 sequence (P41020 whole entry): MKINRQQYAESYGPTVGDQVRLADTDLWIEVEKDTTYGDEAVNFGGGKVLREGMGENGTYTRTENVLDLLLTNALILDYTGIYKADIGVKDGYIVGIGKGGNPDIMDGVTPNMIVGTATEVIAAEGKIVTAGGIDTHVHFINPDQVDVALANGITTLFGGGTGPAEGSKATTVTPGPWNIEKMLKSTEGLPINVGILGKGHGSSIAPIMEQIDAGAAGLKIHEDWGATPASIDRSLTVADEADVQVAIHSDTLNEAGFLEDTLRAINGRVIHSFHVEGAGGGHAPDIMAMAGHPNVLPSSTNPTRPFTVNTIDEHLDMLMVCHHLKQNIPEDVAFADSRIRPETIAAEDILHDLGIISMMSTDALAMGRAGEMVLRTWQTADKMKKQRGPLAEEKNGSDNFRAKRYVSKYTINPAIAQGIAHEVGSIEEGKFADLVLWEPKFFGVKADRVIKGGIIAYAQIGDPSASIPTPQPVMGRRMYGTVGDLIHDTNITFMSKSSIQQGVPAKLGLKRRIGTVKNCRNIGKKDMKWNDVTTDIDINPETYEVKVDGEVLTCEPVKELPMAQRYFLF
# T1 sequence (P41022 whole entry, further chain): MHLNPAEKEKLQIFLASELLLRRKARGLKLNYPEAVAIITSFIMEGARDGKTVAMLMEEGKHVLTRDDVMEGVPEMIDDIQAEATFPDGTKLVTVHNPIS
# T1 sequence (P41021 whole entry, further chain): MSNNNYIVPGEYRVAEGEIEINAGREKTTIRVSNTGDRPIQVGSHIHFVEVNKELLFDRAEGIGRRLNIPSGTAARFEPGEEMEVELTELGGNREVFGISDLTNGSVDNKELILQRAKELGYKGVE
# Description: compounds. Helicobacter pylori 2CLM belongs to the collection of the Department of Microbiology, Wrocław Medical University, Poland.
# Purification of S. pasteurii urease
# The native urease from the cells of S. pasteurii was induced and purified in a five-step chromatographic procedure, as previously described.S5 The protein concentration was […]
# as §1
# Purified urease activity with the addition of the organoselenium compounds studied was measured using cresol red as an indicator of pH changes caused by ammonia produced during ureolysis.S6 The reaction was carried out in 3 mM phosphate buffer containing 30 mM urea, 0.01 % w/v cresol red, purified urease (at a concentration that led to a change in A570 of approximately 1.5 in 90 min) and studied compounds at various concentrations. The reaction was followed by using a TECAN Sunrise spectrometer , and the resulting progress curves were further analyzed to determine the activity and binding mechanism. The rea ction was followed in a system without preincubation of the enzyme with the benzisoselenazolone derivatives (addition of urease initiated the measurement).
# The progress curves were fitted to the following equation to calculate the apparent reaction rate constants ( kapp):
# P = v ∗ t + 0 s ∗ (1 − e−kapp∗t)
# P – product concentration; t – time; v0 – initial state velocity; vs – steady state velocity.
# The kapp values were then plotted against the inhibitor concentration [I], and the resulting linear function was used to calculate the dissociation […] of the EI complex (Ki): […]
# [5] = Helicobacter pylori, ATCC51932, read-out: IC50, H. pylori whole-cell ureolysis, live cells of H. pylori Tx30a
# [6] = 72 h, H. pylori 2CML, single agent, read-out: MIC Alone
# [7] = H. pylori 2CML, single agent, read-out: MIC Alone
# [8] = pair Ebselen + Clarithromycin, H. pylori 2CML
# [9] = pair Ebselen + Levofloxacin, H. pylori 2CML
# [10] = pair Ebselen + Metronidazole, H. pylori 2CML
# [11] = pair 4m + Metronidazole, H. pylori 2CML
# [12] = read-out: IC50, H. pylori whole-cell ureolysis, live cells of H. pylori Tx30a
# [13] = pair 4m + Clarithromycin, H. pylori 2CML
# [14] = pair 4m + Levofloxacin, H. pylori 2CML
molecule,measurement,setting,value
"O=c1c2ccccc2[se]n1-c1ccccc1 [compound 1, N-phenyl-1,2-benzisoselenazol-3(2H)-one]",IC50,[1],29.2 ± 3.1 nM
same,IC50,[2]; [5],742 ± 41 nM
same,MIC,[3]; [6],0.857 µg/mL
same,MIC,[3]; [7],0.857 µg/mL
same,MIC,"[3]; H. pylori 2CML, single agent, read-out: MIC alone",3.12 µM
same,FIC,[3]; pair Ebselen + Clarithromycin,0.5
same,FICI,[3]; pair Ebselen + Clarithromycin,1
same,Interpretation,[3]; pair Ebselen + Clarithromycin,Additive (>0.5 but ≤1 as additivity)
same,MIC Combination,[3]; [8],0.429 µg/mL
same,FIC,[3]; pair Ebselen + Levofloxacin,0.5
same,FICI,[3]; pair Ebselen + Levofloxacin,1
same,Interpretation,[3]; pair Ebselen + Levofloxacin,Additive (>0.5 but ≤1 as additivity)
same,MIC Combination,[3]; [9],0.429 µg/mL
same,FIC,[3]; pair Ebselen + Metronidazole,0.5
same,FICI,[3]; pair Ebselen + Metronidazole,1
same,Interpretation,[3]; pair Ebselen + Metronidazole,Additive (>0.5 but ≤1 as additivity)
same,MIC Combination,[3]; [10],0.429 µg/mL
Cc1ncc([N+](=O)[O-])n1CCO [Metronidazole],MIC,[3]; [6],64 µg/mL
same,MIC,[3]; [7],64 µg/mL
same,FIC,[3]; pair 4m + Metronidazole,0.5
same,Fold change of MIC (reduction),[3]; pair 4m + Metronidazole,×2↓
same,MIC Combination,[3]; [11],32 µg/mL
same,FIC,[3]; pair Ebselen + Metronidazole,0.5
same,Fold change of MIC (reduction),[3]; pair Ebselen + Metronidazole,×2↓
same,MIC Combination,[3]; [10],32 µg/mL
O=c1c2ccccc2[se]n1Cc1ccc(F)cc1 [4d],Ki,[4],25.4 ± 2.8 nM
same,IC50,[2]; [5],193 ± 8.1 nM
O=c1c2ccccc2[se]n1Cc1ccc(F)c(F)c1 [4l],Ki,[4],3.35 ± 0.65 nM
same,IC50,[2]; [5],110 ± 4.5 nM
O=c1c2ccccc2[se]n1Cc1cccc(C(F)(F)F)c1 [4c],Ki,[4],2.5 ± 0.24 nM
same,IC50,[2]; [5],112 ± 2.4 nM
O=c1c2ccccc2[se]n1Cc1cc(F)ccc1Cl [4i],Ki,[4],0.543 ± 0.015 nM
same,IC50,[2]; [5],< 100 nM
same,IC50,[2]; [12],96.4 ± 1.7 nM
O=c1c2ccccc2[se]n1Cc1ccc(Cl)c(C(F)(F)F)c1 [4n],Ki,[4],18.6 ± 0.37 nM
same,IC50,[2]; [5],153 ± 5.4 nM
CC[C@H]1OC(=O)[C@H](C)[C@@H](O[C@H]2C[C@@](C)(OC)[C@@H](O)[C@H](C)O2)[C@H](C)[C@@H](O[C@@H]2O[C@H](C)C[C@H](N(C)C)[C@H]2O)[C@](C)(OC)C[C@@H](C)C(=O)[C@H](C)[C@@H](O)[C@]1(C)O [Clarithromycin],MIC,[3]; [6],16 µg/mL
same,MIC,[3]; [7],16 µg/mL
same,FIC,[3]; pair 4m + Clarithromycin,0.5
same,Fold change of MIC (reduction),[3]; pair 4m + Clarithromycin,×2↓
same,MIC Combination,[3]; [13],8 µg/mL
same,FIC,[3]; pair Ebselen + Clarithromycin,0.5
same,Fold change of MIC (reduction),[3]; pair Ebselen + Clarithromycin,×2↓
same,MIC Combination,[3]; [8],8 µg/mL
O=c1c2ccccc2[se]n1Cc1ccc(Cl)cc1Cl [4f],Ki,[4],0.594 ± 0.032 nM
same,IC50,[2]; [5],345 ± 16 nM
O=c1c2ccccc2[se]n1Cc1ccc(F)c(F)c1F [4r],Ki,[4],2.94 ± 0.26 nM
same,IC50,[2]; [5],179 ± 3.3 nM
O=c1c2ccccc2[se]n1Cc1ccc(F)cc1F [4g],Ki,[4],2.52 ± 0.19 nM
same,IC50,[2]; [5],287 ± 18 nM
O=c1c2ccccc2[se]n1Cc1ccc(Cl)c(Cl)c1 [4k],Ki,[4],15.9 ± 0.65 nM
same,IC50,[2]; [5],315 ± 4.7 nM
O=c1c2ccccc2[se]n1Cc1ccccc1 [compound 3],IC50,"[2]; Helicobacter pylori, ATCC51932, live cells of H. pylori Tx30a, read-out: IC50, H. pylori whole-cell ureolysis",151 ± 5.7 nM
O=c1c2ccccc2[se]n1Cc1cc(F)cc(F)c1 [4p],Ki,[4],1.3 ± 0.027 nM
same,IC50,[2]; [5],122 ± 4.1 nM
"N-(4-chloro-2-fluorophenyl)-1,2-benzisoselenazol-3(2H)-one [compound 2, reference compound]",IC50,"[2]; live cells of H. pylori Tx30a, read-out: IC50, H. pylori whole-cell ureolysis",337 nM
O=c1c2ccccc2[se]n1Cc1ccc(C(F)(F)F)cc1 [4e],Ki,[4],2.1 ± 0.19 nM
same,IC50,[2]; [5],170 ± 1.6 nM
O=c1c2ccccc2[se]n1Cc1ccc(C(F)(F)F)c(F)c1 [4m],Ki,[4],15.9 ± 1.9 nM
same,IC50,[2]; [5],< 100 nM
same,IC50,[2]; [12],93.5 ± 5.3 nM
same,MIC,"[3]; 72 h, read-out: MIC Alone",1.17 µg/mL
same,MIC,[3]; read-out: MIC Alone,1.17 µg/mL
same,MIC,[3]; read-out: MIC alone,3.12 µM
same,FIC,[3]; pair 4m + Clarithromycin,0.0625
same,FICI,[3]; pair 4m + Clarithromycin,0.562
same,Interpretation,[3]; pair 4m + Clarithromycin,Additive (>0.5 but ≤1 as additivity)
same,MIC Combination,[3]; [13],0.0731 µg/mL
same,MIC in combination,[3]; [13],0.2 µM
same,FIC,[3]; pair 4m + Levofloxacin,0.5
same,FICI,[3]; pair 4m + Levofloxacin,1
same,Fold change of MIC (reduction),[3]; pair 4m + Levofloxacin,×2↓
same,Interpretation,[3]; pair 4m + Levofloxacin,Additive (>0.5 but ≤1 as additivity)
same,MIC Combination,[3]; [14],0.585 µg/mL
same,FIC,[3]; pair 4m + Metronidazole,0.125
same,FICI,[3]; pair 4m + Metronidazole,0.625
same,Interpretation,[3]; pair 4m + Metronidazole,Additive (>0.5 but ≤1 as additivity)
same,MIC Combination,[3]; [11],0.146 µg/mL
O=c1c2ccccc2[se]n1Cc1c(F)cccc1F [4j],Ki,[4],1.16 ± 0.14 nM
same,IC50,[2]; [5],218 ± 14 nM
O=c1c2ccccc2[se]n1Cc1ccccc1F [4a],Ki,[4],3.61 ± 0.28 nM
same,IC50,[2]; [5],171 ± 5.4 nM
O=c1c2ccccc2[se]n1Cc1ccc(F)c(C(F)(F)F)c1 [4o],Ki,[4],2.99 ± 0.088 nM
same,IC50,[2]; [5],107 ± 1.9 nM
O=c1c2ccccc2[se]n1Cc1cc(C(F)(F)F)cc(C(F)(F)F)c1 [4q],Ki,[4],3.32 ± 0.29 nM
same,IC50,[2]; [5],208 ± 4.5 nM
O=c1c2ccccc2[se]n1Cc1cc(Cl)ccc1Cl [4h],Ki,[4],9.04 ± 0.22 nM
same,IC50,[2]; [5],341 ± 23 nM
O=c1c2ccccc2[se]n1Cc1cccc(F)c1 [4b],Ki,[4],12.2 ± 0.4 nM
same,IC50,[2]; [5],154 ± 8.4 nM
C[C@H]1COc2c(N3CCN(C)CC3)c(F)cc3c(=O)c(C(=O)O)cn1c23 [Levofloxacin],MIC,[3]; [6],16 µg/mL
same,MIC,[3]; [7],16 µg/mL
same,FIC,[3]; pair 4m + Levofloxacin,0.5
same,Fold change of MIC (reduction),[3]; pair 4m + Levofloxacin,×2↓
same,MIC Combination,[3]; [14],8 µg/mL
same,FIC,[3]; pair Ebselen + Levofloxacin,0.5
same,Fold change of MIC (reduction),[3]; pair Ebselen + Levofloxacin,×2↓
same,MIC Combination,[3]; [9],8 µg/mL
